Source: ChEMBL document CHEMBL1156046, “Amiodarone and its putative metabolites fail to activate wild type hTAAR1” (Bioorg Med Chem Lett, 2009)
pEC50: −log10 of the molar value. The source made the active and inactive calls. No cut-off for these calls is given here.

Columns and labels:
[1] = biological target: T1, Trace amine-associated receptor 1 (Homo sapiens) (UniProt Q96RJ0); test: Activation of human TAAR1 expressed in CHOK1 cells coexpressing Galpha16 assessed as calcium accumulation at 0.1 to 1 uM relative to beta-phenethylamine; format: functional, cell-based; conditions: CHO-K1
T1 sequence (whole entry): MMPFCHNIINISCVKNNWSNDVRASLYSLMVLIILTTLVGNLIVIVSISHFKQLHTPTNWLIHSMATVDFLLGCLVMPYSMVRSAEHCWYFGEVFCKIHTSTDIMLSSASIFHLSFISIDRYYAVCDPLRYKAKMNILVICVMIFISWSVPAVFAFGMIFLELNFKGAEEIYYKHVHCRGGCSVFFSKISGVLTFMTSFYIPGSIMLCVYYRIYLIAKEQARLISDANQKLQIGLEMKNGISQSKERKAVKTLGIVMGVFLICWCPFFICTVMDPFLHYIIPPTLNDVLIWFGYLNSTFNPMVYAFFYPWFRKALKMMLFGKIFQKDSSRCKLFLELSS

[2] = biological target: T1, Trace amine-associated receptor 1 (Homo sapiens); test: Activation of human TAAR1 expressed in CHOK1 cells assessed as cAMP accumulation at 10 uM relative to beta-phenethylamine; format: functional, cell-based; conditions: CHO-K1
[3] = biological target: T1, Trace amine-associated receptor 1 (Homo sapiens); test: Activation of human TAAR1 expressed in CHOK1 cells assessed as cAMP accumulation at 0.1 to 1 uM; format: functional, cell-based; conditions: CHO-K1
CHO [4] = test: Effect on calcium mobilization in CHO cells stably expressing Galpha16; format: functional, cell-based; conditions: Cricetulus griseus
[5] = biological target: T1, Trace amine-associated receptor 1 (Homo sapiens); test: Activation of human TAAR1 expressed in CHOK1 cells coexpressing Galpha16 assessed as calcium accumulation relative to control; format: functional, cell-based; conditions: CHO-K1
[6] = biological target: T2, Trace amine-associated receptor 1 (Homo sapiens, UniProt Q96RJ0); test: Activation of human TAAR1 expressed in CHOK1 cells coexpressing Galpha16 assessed as calcium accumulation; format: functional, cell-based, CHO-K1
T2 sequence (Q96RJ0 whole entry): T1 sequence (whole entry)

CHO [7] = test: Effect on calcium mobilization in CHO cells stably expressing Galpha16 at 10 uM relative to beta-phenethylamine; format: functional, Cricetulus griseus

SMILES | Activity [1] | Activity [2] | Activity [3] | also measured
CCCCc1oc2ccccc2c1C(=O)c1ccc(OCCNCC)cc1 | inactive | < 5% | inactive | –
CCCCc1oc2ccccc2c1C(=O)c1ccc(OCCN(CC)CC)c(I)c1 | inactive | – | inactive | –
CCCCc1oc2ccccc2c1C(=O)c1ccc(OCCN)c(I)c1 | inactive | < 5% | inactive | –
CCCCc1oc2ccccc2c1C(=O)c1ccc(OCCN)cc1 | inactive | – | inactive | –
CCCCc1oc2ccccc2c1C(=O)c1cc(I)c(OCCN(CC)CC)c(I)c1 | – | – | inactive | Activity (CHO [4]): inactive
NCCOc1ccccc1 | – | – | – | Emax [5]: 41%; pEC50 [6]: 5.75
CCCCc1oc2ccccc2c1C(=O)c1ccc(OCCN(CC)CC)cc1 | inactive | – | inactive | –
CCCCc1oc2ccccc2c1C(=O)c1cc(I)c(OCCNCC)c(I)c1 [DESETHYLAMIODARONE] | inactive | – | inactive | Activity (CHO [7]): 44%
CCCCc1oc2ccccc2c1C(=O)c1ccc(OCCNCC)c(I)c1 | inactive | – | inactive | –
CCCCc1oc2ccccc2c1C(=O)c1cc(I)c(OCCN)c(I)c1 | inactive | < 5% | inactive | –
